3 molecules from US10143200B2, “Synergistic compositions for the protection of agrarian crops and the use thereof” (STICHTING I-F PRODUCT COLLABORATION, priority 2012, dated 2018) can be followed below.

Molecules are shown by their SMILES.

In data set [1] the test system is Stagonospora nodorum (SN). The experiment in a line: In vitro growth inhibition of spore suspensions (optical density 405 nm, 43 h). The data set is classed as cell-based. As to conditions: concentration giving 50% growth inhibition; Stagonospora nodorum spores, 43 hours at room temperature, average of three replicates.
The subject of another data set is Botrytis cinerea (BC). The description is as above. Particulars: concentration giving 50% growth inhibition; Botrytis cinerea spores, 43 hours at room temperature, average of three replicates. The data set is classed as cell-based.
The next data set concerns wheat plants. The experiment in a line: Phytotoxicity (percentage of leaf necrosis) on wheat plants. As to conditions: scale 0 (none) to 100. The data set is classed as in vivo, wheat (Salgemma variety). The method, then:
Leaves of wheat plants of the Salgemma variety, grown in pots in a conditioned environment kept at 20° C. and 70% of relative humidity (R.H.), were treated by spraying both sides of the leaves with the compounds and the compositions under testing, dispersed in hydroacetonic solutions at 20% by volume of acetone.
At the same time, the phytotoxicity (percentage of leaf necrosis) induced on the wheat plants by the application of the products and compositions was evaluated: in this case, the scale ranged from 0 (no phytotoxicity) to 100 (completely necrotized plant).

Another data set relates to Puccinia recondita. The experiment in a line: Fungicidal activity in preventive application (5 days) on wheat. The format is in vivo, Puccinia recondita on wheat (Salgemma variety). Particulars: leaf spray 5 days before inoculation, reduction of affected leaf area vs untreated, scale 0-100. How it is done:
Leaves of wheat plants of the […] variety, grown in pots in a conditioned environment kept at 20° C. and 70% of relative humidity (R.H.), were treated by spraying both sides of the leaves with the compounds and the compositions under testing, dispersed in hydroacetonic solutions at 20% by volume of acetone. After remaining 5 days in a conditioned environment, the plants were sprayed on both sides of the leaves with an aqueous suspension of conidia of Puccinia recondita (2 mg of inoculum per 1 ml of solution for infection). After being sprayed, the plants were kept in a humidity-saturated environment at a temperature ranging from 18 to 24° C. for the incubation period of the fungus (1 day). After this period, the plants were put in a greenhouse with R.H. of 70% and at a temperature of 18-24° C. for 14 days. At the end of this period the external symptoms of the pathogen appeared and it was therefore possible to proceed with the visual assessment of the intensity of the infection. The fungicidal activity was expressed as percentage of reduction of affected leaves areas with respect to those of untreated plants used as control: the scale comprised, as extremes, the value 100 (full activity; healthy plant) and the value 0 (no activity; completely infected plant).

Take `CC1CC(C)(C)c2c(F)ccc(NC(=O)c3cn(C)nc3C(F)F)c21` (racemic) [Racemic (I), 3-difluoromethyl-N-(7-fluoro-1,1,3-trimethyl-4-indanyl)-1-methyl-4-pyrazolecarboxamide]: the “SN EC50” value in data set [1] was 1.1 ppm. For the same molecule, the “EC50 against Botrytis cinerea” value in the data set with Botrytis cinerea (BC) is listed as 0.32 ppm. Moreover, the “% Phytotoxicity” value in the data set on wheat plants (Rate 62.5 ppm) and with wheat plants (Rate 125 ppm) was 0% throughout. Moreover, the “% Activity” value is listed as 96% in the data set with Puccinia recondita (Rate 62.5 ppm) and 98% with Puccinia recondita (Rate 125 ppm).
On to `CC1CC(C)(C)c2c(F)ccc(NC(=O)c3cn(C)nc3C(F)F)c21` (single isomer, unassigned; (+)) [(+)-(I), 3-difluoromethyl-N-(7-fluoro-1,1,3-trimethyl-4-indanyl)-1-methyl-4-pyrazolecarboxamide], for which the “SN EC50” value in data set [1] amounted to 72 ppm. The “EC50 against Botrytis cinerea” value with Botrytis cinerea (BC) is recorded as “n.i”. Besides, the “% Phytotoxicity” value in the data set with wheat plants (Rate 62.5 ppm) and with wheat plants (Rate 125 ppm) was 0% each time. For the same molecule, the figures for the “% Activity” value in the data set on Puccinia recondita (Rate 62.5 ppm) and in the data set on Puccinia recondita (Rate 125 ppm) were 20% and 45%, respectively.
In the case of `CC1CC(C)(C)c2c(F)ccc(NC(=O)c3cn(C)nc3C(F)F)c21` (single isomer, unassigned; (-)) [(−)-(I), 3-difluoromethyl-N-(7-fluoro-1,1,3-trimethyl-4-indanyl)-1-methyl-4-pyrazolecarboxamide], in data set [1], the “SN EC50” value is reported as 0.42 ppm. Also, the “EC50 against Botrytis cinerea” value with Botrytis cinerea (BC) came to 0.17 ppm. The “% Phytotoxicity” value with wheat plants (Rate 62.5 ppm) and in the data set with wheat plants (Rate 125 ppm) was 0% each time. For the same molecule, the “% Activity” value is reported as 96% with Puccinia recondita (Rate 62.5 ppm) and 100% in the data set on Puccinia recondita (Rate 125 ppm).
